Assay results: patent US12448433B2, “Human ApoB100 epitopes, methods and uses for modulating inflammatory responses, and treating adverse cardiovascular events, disease and atherosclerosis” (LA JOLLA INSTITUTE FOR ALLERGY AND IMMUNOLOGY, priority 2015, dated 2025)
No end group written: not given here.

Experiments:
DPB1*02:01 = assay: Peptide binding to HLA-DP allele, competition assay; design: species or system human
Description: (§1) Peptide binding to MHC-II requires anchor residues in certain positions and thus can be predicted using computer algorithms. Affinity can be measured experimentally using a competition assay (1). Both are excellent screening tools. However, affinity must be measured separately for each MHC-II allele. Humans express molecules encoded in four different MHC-II loci, denominated HLA-DRB1, DRB3/4/5, DP and DQ. Allelic variation is large, and most people are heterozygous at each locus, thus expressing up to 8 relevant MHC-II alleles. CD4 T cell responses strictly require that the antigenic peptide binds to the relevant MHC-II.
(§2) To identify peptides that could potentially be used in human patients, 30 peptides were screened for binding to 26 HLA alleles by competition assay.

DPB1*04:02 = assay: as above; design: species or system human
Description: as §1, §2

DPB1*05:01 = assay: as above; design: species or system human
Description: as §1, §2

DPB1*14:01 = assay: as above; design: species or system human
Description: as §1, §2

DPB1*04:01 = biological target: T1, DPB1*04:01 (Homo sapiens, UniProt P04440); assay: as above
T1 sequence (P04440 30-258): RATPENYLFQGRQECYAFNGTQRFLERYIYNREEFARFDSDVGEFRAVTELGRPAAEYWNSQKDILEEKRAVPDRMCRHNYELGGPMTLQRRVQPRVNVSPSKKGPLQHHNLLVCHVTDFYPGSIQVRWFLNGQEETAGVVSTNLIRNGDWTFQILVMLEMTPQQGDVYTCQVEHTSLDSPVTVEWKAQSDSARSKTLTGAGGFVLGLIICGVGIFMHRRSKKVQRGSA
T1 sequence (P20036 29-260 partner): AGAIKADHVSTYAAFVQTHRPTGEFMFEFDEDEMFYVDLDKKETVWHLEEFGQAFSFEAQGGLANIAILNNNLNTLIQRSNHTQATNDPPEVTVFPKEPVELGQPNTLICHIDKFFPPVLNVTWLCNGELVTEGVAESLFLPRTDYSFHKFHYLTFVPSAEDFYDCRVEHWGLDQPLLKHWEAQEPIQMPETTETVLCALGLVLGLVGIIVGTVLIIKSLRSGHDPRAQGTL
Description: as §1, §2

DQB1*05:01 = assay: Peptide binding to HLA-DQ allele, competition assay; design: species or system human
Description: as §1, §2

DQB1*06:02 = assay: as above; design: species or system human
Description: as §1, §2

Q: Which results are given for `CC[C@H](C)[C@H](NC(=O)[C@H](CO)NC(=O)[C@H](Cc1ccc(O)cc1)NC(=O)[C@H](CC(C)C)NC(=O)[C@H](CCCCN)NC(=O)CN)C(=O)N[C@@H](CC(C)C)C(=O)N[C@@H](CCCCN)C(=O)N[C@H](C(=O)N[C@@H](CCC(N)=O)C(=O)N[C@@H](CO)C(=O)N1CCC[C@H]1C(=O)N[C@@H](CC(C)C)C(=O)N[C@@H](Cc1ccccc1)C(=O)N[C@H](C(=O)O)[C@@H](C)O)[C@@H](C)CC` [Peptide 3563.0016]?
A: IC50 (DPB1*02:01): 9070 nM; IC50 (DPB1*04:02): 419 nM; IC50 (DPB1*05:01): 2380 nM; IC50 (DPB1*14:01): 7020 nM; IC50 (DPB1*04:01): 2100 nM; IC50 (DQB1*05:01): 6000 nM

Q: For `CC[C@H](C)[C@H](NC(=O)[C@H](CCC(=O)O)NC(=O)[C@H](CC(=O)O)NC(=O)[C@@H](NC(=O)[C@@H](NC(=O)[C@H](CC(N)=O)NC(=O)[C@H](C)NC(=O)[C@@H](NC(=O)[C@H](C)NC(=O)[C@@H](NC(=O)[C@H](CCCCN)NC(=O)[C@H](CC(C)C)NC(=O)[C@H](CC(=O)O)NC(=O)[C@H](Cc1c[nH]cn1)NC(=O)[C@@H](N)CC(C)C)[C@@H](C)CC)[C@@H](C)CC)[C@@H](C)CC)[C@@H](C)CC)C(=O)O` [Peptide 3563.0013], which IC50 (DPB1*05:01) is on record?
A: 6520 nM

Q: And the IC50 (DQB1*05:01)?
A: 691 nM

Q: And the IC50 (DQB1*06:02)?
A: 1830 nM

Q: How did the IC50 (DPB1*14:01) turn out when `CC[C@H](C)[C@H](NC(=O)[C@H](CC(C)C)NC(=O)[C@@H](N)CC(C)C)C(=O)N[C@@H](CC(=O)O)C(=O)N[C@H](C(=O)N[C@H](C(=O)N[C@H](C(=O)N[C@@H](Cc1ccc(O)cc1)C(=O)N[C@@H](CC(C)C)C(=O)N[C@H](C(=O)N[C@@H](C)C(=O)N[C@@H](CC(C)C)C(=O)N[C@H](C(=O)N1CCC[C@H]1C(=O)N[C@@H](CCC(=O)O)C(=O)O)[C@@H](C)CC)C(C)C)[C@@H](C)O)C(C)C)C(C)C` [Peptide 3563.0002] was run?
A: 8570 nM

Q: What about the IC50 (DQB1*05:01) of the same compound?
A: 3620 nM

Q: What about the IC50 (DQB1*06:02) of the same compound?
A: 38800 nM

Q: How did the IC50 (DPB1*05:01) turn out when `CC[C@H](C)[C@H](N)C(=O)N[C@@H](CC(C)C)C(=O)N[C@@H](Cc1ccccc1)C(=O)N[C@@H](CO)C(=O)N[C@@H](Cc1ccc(O)cc1)C(=O)N[C@@H](Cc1ccccc1)C(=O)N[C@@H](CCC(N)=O)C(=O)N[C@@H](CC(=O)O)C(=O)N[C@@H](CC(C)C)C(=O)N[C@H](C(=O)N[C@H](C(=O)N[C@H](C(=O)N[C@@H](CC(C)C)C(=O)N1CCC[C@H]1C(=O)N[C@@H](Cc1ccccc1)C(=O)O)[C@@H](C)O)[C@@H](C)CC)C(C)C` [Peptide 3563.0023] was run?
A: 3820 nM

Q: And the IC50 (DQB1*05:01)?
A: 19 nM

Q: What about the IC50 (DQB1*06:02) of the same compound?
A: 12200 nM

Q: What does the source list for `CC(C)C[C@H](NC(=O)[C@H](C)NC(=O)[C@H](Cc1ccccc1)NC(=O)[C@H](CO)NC(=O)[C@H](CO)NC(=O)[C@@H](NC(=O)[C@H](CCCNC(=N)N)NC(=O)[C@H](CC(C)C)NC(=O)[C@H](CCCCN)NC(=O)[C@H](CCCCN)NC(=O)[C@@H](N)Cc1ccc(O)cc1)[C@@H](C)O)C(=O)N[C@@H](CC(N)=O)C(=O)N[C@@H](CC(C)C)C(=O)N1CCC[C@H]1C(=O)N[C@H](C(=O)O)[C@@H](C)O` [Peptide 3563.0022]?
A: IC50 (DPB1*02:01): 3.3 nM; IC50 (DPB1*04:02): 67 nM; IC50 (DPB1*05:01): 221 nM; IC50 (DPB1*14:01): 15 nM; IC50 (DPB1*04:01): 2.1 nM; IC50 (DQB1*06:02): 2650 nM

Q: How did the IC50 (DPB1*04:02) turn out when TLTAFGFASADLLEI [Peptide 3563.0005] was run?
A: 5.3 nM

Q: And the IC50 (DPB1*14:01)?
A: 847 nM

Q: What about the IC50 (DQB1*05:01) of the same compound?
A: 118 nM

Q: Which results are given for `CC[C@H](C)[C@H](NC(=O)[C@H](CC(=O)O)NC(=O)[C@H](CC(C)C)NC(=O)[C@H](CC(C)C)NC(=O)[C@H](CCC(=O)O)NC(=O)[C@@H](N)CCC(N)=O)C(=O)N[C@@H](C)C(=O)N[C@@H](CC(N)=O)C(=O)N[C@@H](Cc1ccc(O)cc1)C(=O)N[C@@H](CC(C)C)C(=O)N[C@@H](CCSC)C(=O)N[C@@H](CCC(=O)O)C(=O)N[C@@H](CCC(N)=O)C(=O)N[C@H](C(=O)N[C@@H](CCC(N)=O)C(=O)O)[C@@H](C)CC` [Peptide 3563.0003]?
A: IC50 (DPB1*02:01): 1780 nM; IC50 (DPB1*04:02): 182 nM; IC50 (DPB1*04:01): 2580 nM; IC50 (DQB1*05:01): 4 nM; IC50 (DQB1*06:02): 2430 nM

Q: Which results are given for `CC[C@H](C)[C@H](NC(=O)[C@H](Cc1ccc(O)cc1)NC(=O)[C@H](CCC(N)=O)NC(=O)[C@H](Cc1c[nH]cn1)NC(=O)[C@@H](NC(=O)[C@@H](N)CCC(N)=O)[C@@H](C)CC)C(=O)N[C@@H](CCSC)C(=O)N[C@@H](C)C(=O)N[C@@H](CC(C)C)C(=O)N[C@@H](CCCNC(=N)N)C(=O)N[C@@H](CCC(=O)O)C(=O)N[C@@H](CCC(=O)O)C(=O)N[C@@H](Cc1ccc(O)cc1)C(=O)N[C@@H](Cc1ccccc1)C(=O)N[C@@H](CC(=O)O)C(=O)O` [Peptide 3563.0027]?
A: IC50 (DPB1*02:01): 80 nM; IC50 (DPB1*04:02): 51 nM; IC50 (DPB1*05:01): 122 nM; IC50 (DPB1*14:01): 1820 nM; IC50 (DPB1*04:01): 817 nM; IC50 (DQB1*06:02): 897 nM
